From patent US20200247761A1, “SULFONAMIDE OR AMIDE COMPOUNDS, COMPOSITIONS AND METHODS FOR THE PROPHYLAXIS AND/OR TREATMENT OF AUTOIMMUNE, INFLAMMATION OR INFECTION RELATED DISORDERS” (TAIWANJ PHARMACEUTICALS CO., LTD, priority 2017, published 2020)
Like-named read-outs stand apart in the source and are kept apart here.

Assays:
Assay type in all cases: cell-based
RAW264.7 cells = experiment: Cell viability (MTT) of RAW264.7 cells; conditions: for Cell Viability (%) mean: Test Con. 10 μM, MTT, RAW264.7 cells, percentage of viable LPS-stimulated cells; for toxic activity toward RAW264.7 cells (in words): Table 2, 10 μM
Protocol: (§1) RAW264.7 cells (1.6×10^5 cells/well) or HEK 293 cells (2.5-5.0×10^4 cells/well) were seeded in 96-well plate overnight and treated with different compounds for 16-24 hours. Cells' growth were determined by MTT-based colorimetric assays. Viability of the test cells treated with vehicle (0.5% DMSO) only was defined as 100% viable. Survival of cells after treatment with DETDs was calculated using the following formula: viable cell number (%)=OD570 (treated cell culture)/OD570 (vehicle control)×100.
(§2) The cell viability assay was performed by the MTT method, in which cells were incubated with 45 μl of 5 mg/ml MTT for 1 hour at 37° C., and 150 μl of DMSO was added at the end of culture to dissolve the crystals. The signals of individual samples in 96-well plates were detected at O.D.570 nm with a Molecular Devices SpectraMax i3 Imaging Cytometer. Cell viability was expressed in percentage of viable LPS-stimulated cells.

[1] = biological target: T1, Toll-like receptor 4 (TLR4) (Homo sapiens, UniProt O00206); experiment: TLR4 activity: NF-κB-inducible SEAP reporter in LPS-stimulated TLR4-expressing HEK293 cells; conditions: for inhibition at 10 µM: Test Con. 10 μM; for inhibition at 10 µM / inhibition at 100 µM / inhibition at 20 µM: LPS 10 ng/ml, 16-24 hours, HEK293 cells expressing TLR4, read-out: TLR-4 inhibition (%) mean; for activity towards TLR-4 (in words): summary of Table 1 (10, 20 or 100 μM); for inhibition at 100 µM: Test Con. 100 μM; for inhibition at 20 µM: Test Con. 20 μM
T1 construct: expressed in transfected cells; host or cells: HEK293 cells engineered to express TLR4
T1 sequence (O00206 24-839, species assumed): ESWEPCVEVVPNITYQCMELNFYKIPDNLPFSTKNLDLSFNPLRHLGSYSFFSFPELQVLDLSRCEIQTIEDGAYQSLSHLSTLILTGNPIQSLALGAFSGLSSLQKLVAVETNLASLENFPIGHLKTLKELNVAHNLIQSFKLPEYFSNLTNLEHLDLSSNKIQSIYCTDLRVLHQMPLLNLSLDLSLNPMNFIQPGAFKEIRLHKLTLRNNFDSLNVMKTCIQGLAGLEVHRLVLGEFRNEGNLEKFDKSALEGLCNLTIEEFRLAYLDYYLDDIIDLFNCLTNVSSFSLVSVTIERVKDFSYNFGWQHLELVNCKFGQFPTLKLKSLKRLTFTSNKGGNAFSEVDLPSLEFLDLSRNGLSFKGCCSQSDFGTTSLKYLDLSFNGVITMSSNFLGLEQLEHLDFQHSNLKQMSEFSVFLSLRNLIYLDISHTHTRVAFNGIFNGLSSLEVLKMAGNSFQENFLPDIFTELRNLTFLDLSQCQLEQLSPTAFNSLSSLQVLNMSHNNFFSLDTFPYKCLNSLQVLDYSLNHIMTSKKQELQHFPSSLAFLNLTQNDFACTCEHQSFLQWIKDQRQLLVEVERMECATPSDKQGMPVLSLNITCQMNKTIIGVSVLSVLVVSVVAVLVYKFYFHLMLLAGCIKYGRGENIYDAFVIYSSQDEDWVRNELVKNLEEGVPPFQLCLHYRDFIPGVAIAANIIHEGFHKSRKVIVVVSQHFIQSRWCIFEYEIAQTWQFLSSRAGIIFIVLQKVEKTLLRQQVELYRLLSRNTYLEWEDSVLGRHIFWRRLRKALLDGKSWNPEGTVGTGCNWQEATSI
T1 sequence (Q9Y6Y9 17-160 partner limits assumed, species assumed): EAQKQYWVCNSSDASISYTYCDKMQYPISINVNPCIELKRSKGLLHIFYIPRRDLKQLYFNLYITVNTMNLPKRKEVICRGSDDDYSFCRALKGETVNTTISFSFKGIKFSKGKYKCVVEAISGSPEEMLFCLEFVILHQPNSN
Protocol: Stimulation of the Toll-like receptor 4 (TLR4) was determined by assessing activation of the transcription factor NF-κB in HEK293 cells that were engineered to express TLR4. Assessment of TLR4 stimulation was based on the use of an NE-κB-inducible secreted alkaline phosphatase (SEAP) reporter system in which the SEAP reporter was under the control of a promoter inducible by NF-κB. Thus, the degree of activation of TLR4 can be indirectly quantified spectrophotometrically by measuring the amount of the SEAP reporter that is produced.
The TLR4-expressing cells were plated in HEK-Blue Detection (Invivogen, San Diego, Calif.) medium in a 96-well plate (25,000-50,000 cells/well). The cells were stimulated with lipopolysaccharides (LPS) alone or in combination with the compound of Example 1. Cell culture without LPS and the compound of Example 1 was defined as baseline control. To test whether the compound of Example 1 could block that activation of the TLR4, the cells were treated with the designated compound (10, 20 or 100 μM) and LPS (final conc. 10 ng/ml/well). After an incubation period (16-24 hours) at 37° C. in a CO2 incubator, the signals of individual samples in 96-well plates were detected at O.D.650 nm with a Molecular Devices SpectraMax i3 Imaging Cytometer. The TLR4 activity was expressed in percentage of LPS alone-stimulated cells minus baseline control.

[2] = test system: mTNF-α secretion from LPS-stimulated RAW264.7 monocytes; experiment: LPS induced mTNF-α release from RAW264.7 cells (ELISA); conditions: Mus musculus
Protocol: To confirm whether the inhibitory effect of the selected compounds of example 2.1 (i.e., Compounds 12, 15, 19, 20, 22, 24, 28, 30, 32, 34, 36, 38, 40, 42, 44, 45, 49, 50, 52 and 70) translates to anti-inflammation, they were further tested to see if any of them may suppress mTNF-α secretion from lipopolysaccharide (LPS)-stimulated RAW264.7 monocytes.
To this purpose, RAW264.7 cells were seeded at 1.6×10^5 cells/well into 96-well culture plates. Test compounds (i.e., Compounds 12, 15, 19, 20, 22, 24, 28, 30, 32, 34, 36, 38, 40, 42, 44, 45, 49, 50, 52 and 70, respectively at 10 μM) were added into the culture plates in triplicate and co-cultured at 37° C. in 5% CO2 for 30 minutes. LPS (final conc. 10 ng/ml/well) was then added into the culture plates and the cells were incubated for another 4 hours. At the end of culture, the cultured media were harvested for mTNF-α quantification by ELISA with commercial assay kits (R&D Systems, Minneapolis, Minn.) following the manufacturer's protocol. Signals of the individual samples in 96-well plates were detected at O.D.450 nm/570 nm with a Molecular Devices SpectraMax i3 Imaging Cytometer. The mTNF-α activity was expressed in percentage of viable LPS-stimulated cells without test compound treatment.

HEK293 cells = experiment: Cell viability (MTT) of the TLR4-expressing HEK293 cells; conditions: percentage of viable LPS-stimulated cells
Protocol: as §1
as §2, with “method. Cells” for “method, in which cells”

[3] = RAW264.7, Table 2, 10 μM, read-out: inhibition of LPS induced mTNF-α release from RAW264.7 cells
[4] = Test Con. 10 μM, LPS 10 ng/ml, 4 hours, RAW264.7 cells, read-out: mTNF-α inhibition (%) mean

Row | Compound | inhibition at 10 µM [1] [%] | activity towards TLR-4 (in words) [1] | inhibition at 100 µM [1] [%] | inhibition at 20 µM [1] [%] | Cell Viability (%) mean (RAW264.7 cells) [%] | inhibition at 10 µM [2, 3] [%] | inhibition at 10 µM [2, 4] [%] | Cell Viability (%) mean (HEK293 cells; Test Con. 10 μM) [%] | toxic activity toward RAW264.7 cells (in words) (RAW264.7 cells) | Cell Viability (%) mean (HEK293 cells; Test Con. 20 μM) [%]
1 | C=CC(=O)N1CCN(CC(=O)Nc2ccc(F)cc2)CC1 [Compound 6] |  | mild or negligible activity | 17.8 |  |  |  |  |  |  | 
2 | C=CC(=O)N1CCCc2cccc(S(=O)(=O)Nc3ccc(F)cc3Cl)c21 [Compound 12] | 98.9 | strong antagonist |  |  | 25.5 | 85 to 100 | 100 | 72 |  | 
3 | C=CC(=O)N1CCC[C@H]1C(=O)Nc1ccc(F)cc1Cl [Compound 61] | 3.7 | mild or negligible activity |  |  |  |  |  | 93.4 |  | 
4 | C=CC(=O)N1CCCc2cccc(S(=O)(=O)Nc3ccc(F)cc3F)c21 [Compound 15] | 100 | strong antagonist |  |  | 52.4 | 85 to 100 | 94.7 | 84.1 |  | 
5 | O=S(=O)(Nc1ccc(F)cc1Cl)c1cccc2c1N(S(=O)(=O)CCl)CCC2 [Compound 16] |  | mild or negligible activity |  | 18 |  |  |  |  |  | 96.5
6 | C/C=C/C(=O)N1CCCc2cccc(S(=O)(=O)Nc3ccc(F)cc3Cl)c21 [Compound 13] |  | mild or negligible activity |  | 10.9 |  |  |  |  |  | 86.6
7 | C=CC(=O)N1CCCC[C@H]1C(=O)N(C)c1ccc(F)cc1Cl [Compound 57] | 17.5 | mild or negligible activity |  |  |  |  |  | 95.9 |  | 
8 | COC(=O)C1=CCN(CC(=O)Nc2ccc(F)cc2)CC1 [Compound 3] |  | mild or negligible activity | 6.8 |  |  |  |  |  |  | 
9 | C=CC(=O)N1CCC[C@@H]1C(=O)Nc1ccc(F)cc1Cl [Compound 65] | 15.8 | mild or negligible activity |  |  |  |  |  | 100.5 |  | 

Now from value to compound, other results behind:

Row | inhibition at 10 µM [1] [%] | activity towards TLR-4 (in words) [1] | inhibition at 100 µM [1] [%] | inhibition at 20 µM [1] [%] | Compound | Cell Viability (%) mean (RAW264.7 cells) [%] | inhibition at 10 µM [2, 3] [%] | inhibition at 10 µM [2, 4] [%] | Cell Viability (%) mean (HEK293 cells; Test Con. 10 μM) [%] | toxic activity toward RAW264.7 cells (in words) (RAW264.7 cells) | Cell Viability (%) mean (HEK293 cells; Test Con. 20 μM) [%]
10 | 100 | strong antagonist |  |  | C=CC(=O)N(c1ccc(F)cc1Cl)S(=O)(=O)c1ccccc1 [Compound 19] | 38.1 | 85 to 100 | 96.1 | 80 |  | 
11 | 94.8 | strong antagonist |  |  | C=CC(=O)N(c1ccc(F)cc1Cl)S(=O)(=O)c1ccc(F)cc1Cl [Compound 30] | 99.7 | 85 to 100 | 82.9 | 94.0 | negligible to no toxic activity | 
12 | 100 | strong antagonist |  |  | C=CC(=O)N(c1ccc(F)cc1Cl)S(=O)(=O)c1ccccc1S(C)(=O)=O [Compound 32] | 48.3 | 85 to 100 | 97.5 | 84.5 |  | 
13 | 63 | moderate inhibitory activity |  |  | C=CC(=O)N(c1ccc(F)cc1Cl)S(=O)(=O)c1ccccc1[N+](=O)[O-] [Compound 22] | 96.4 | ~40 | 45.7 | 109.9 | negligible to no toxic activity | 
14 | 100 | strong antagonist |  |  | C=CC(=O)N(c1ccc(F)cc1Cl)S(=O)(=O)N1CCCCC1C(=O)OC (centres unmarked) [Compound 52] | 88.1 | 85 to 100 | 97.2 | 92.2 | negligible to no toxic activity | 
15 | 60.1 | moderate inhibitory activity |  |  | C=C(C)C(=O)N(c1ccc(F)cc1Cl)S(=O)(=O)c1ccccc1 [Compound 20] | 100.0 | ~70 | 70.9 | 90.4 | negligible to no toxic activity | 
16 | 100 | strong antagonist |  |  | C=CC(=O)N(C1CC1)S(=O)(=O)c1ccc(F)cc1Cl [Compound 40] | 93.5 | 85 to 100 | 99.7 | 85.5 | negligible to no toxic activity | 
17 | 10.7 | mild or negligible activity |  |  | C=CC(=O)N(c1ccc(F)cc1Cl)S(=O)(=O)c1ccccc1OC(F)(F)F [Compound 26] |  |  |  | 86.8 |  | 
18 | 67.3 | moderate inhibitory activity |  |  | C=CC(=O)N(c1ccc(F)cc1Cl)S(=O)(=O)Cc1ccccc1 [Compound 36] | 102.8 | ~13 | 13 | 107.0 | negligible to no toxic activity | 
19 | 100 | strong antagonist |  |  | C=CC(=O)N(c1ccc(F)cc1Cl)S(=O)(=O)c1c(C)noc1C [Compound 34] | 53.9 | 85 to 100 | 98.5 | 63.0 |  | 
20 | 76 | moderate inhibitory activity |  |  | C=CC(=O)N(c1ccc(F)cc1Cl)S(=O)(=O)N1CCCC1 [Compound 50] | 97.6 | 85 to 100 | 86.1 | 85.1 | negligible to no toxic activity | 
21 | 100 | strong antagonist |  |  | C=CC(=O)N(c1ccc(F)cc1Cl)S(=O)(=O)c1c(C)oc(C)c1C(=O)OC [Compound 42] | 27.8 | 85 to 100 | 98.6 | 72.4 |  | 
22 | 100 | strong antagonist |  |  | C=CC(=O)N(c1ccc(F)cc1Cl)S(=O)(=O)c1ccccc1C(=O)OC [Compound 24] | 54.5 | 85 to 100 | 96 | 88.5 |  | 
